Experimental data published in patent US4757069A, “Pyridazodiazepine derivatives” (Hoffmann-La Roche Inc., priority 1986, dated 1988).
Counter-ions that a name gives are not always drawn.

Target: T1, Angiotensin converting enzyme (rabbit lung) (Oryctolagus cuniculus, UniProt P12822)
T1 construct: Angiotensin converting enzyme (rabbit lung); from tissue; host or cells: rabbit lung
T1 sequence (P12822 34-1310): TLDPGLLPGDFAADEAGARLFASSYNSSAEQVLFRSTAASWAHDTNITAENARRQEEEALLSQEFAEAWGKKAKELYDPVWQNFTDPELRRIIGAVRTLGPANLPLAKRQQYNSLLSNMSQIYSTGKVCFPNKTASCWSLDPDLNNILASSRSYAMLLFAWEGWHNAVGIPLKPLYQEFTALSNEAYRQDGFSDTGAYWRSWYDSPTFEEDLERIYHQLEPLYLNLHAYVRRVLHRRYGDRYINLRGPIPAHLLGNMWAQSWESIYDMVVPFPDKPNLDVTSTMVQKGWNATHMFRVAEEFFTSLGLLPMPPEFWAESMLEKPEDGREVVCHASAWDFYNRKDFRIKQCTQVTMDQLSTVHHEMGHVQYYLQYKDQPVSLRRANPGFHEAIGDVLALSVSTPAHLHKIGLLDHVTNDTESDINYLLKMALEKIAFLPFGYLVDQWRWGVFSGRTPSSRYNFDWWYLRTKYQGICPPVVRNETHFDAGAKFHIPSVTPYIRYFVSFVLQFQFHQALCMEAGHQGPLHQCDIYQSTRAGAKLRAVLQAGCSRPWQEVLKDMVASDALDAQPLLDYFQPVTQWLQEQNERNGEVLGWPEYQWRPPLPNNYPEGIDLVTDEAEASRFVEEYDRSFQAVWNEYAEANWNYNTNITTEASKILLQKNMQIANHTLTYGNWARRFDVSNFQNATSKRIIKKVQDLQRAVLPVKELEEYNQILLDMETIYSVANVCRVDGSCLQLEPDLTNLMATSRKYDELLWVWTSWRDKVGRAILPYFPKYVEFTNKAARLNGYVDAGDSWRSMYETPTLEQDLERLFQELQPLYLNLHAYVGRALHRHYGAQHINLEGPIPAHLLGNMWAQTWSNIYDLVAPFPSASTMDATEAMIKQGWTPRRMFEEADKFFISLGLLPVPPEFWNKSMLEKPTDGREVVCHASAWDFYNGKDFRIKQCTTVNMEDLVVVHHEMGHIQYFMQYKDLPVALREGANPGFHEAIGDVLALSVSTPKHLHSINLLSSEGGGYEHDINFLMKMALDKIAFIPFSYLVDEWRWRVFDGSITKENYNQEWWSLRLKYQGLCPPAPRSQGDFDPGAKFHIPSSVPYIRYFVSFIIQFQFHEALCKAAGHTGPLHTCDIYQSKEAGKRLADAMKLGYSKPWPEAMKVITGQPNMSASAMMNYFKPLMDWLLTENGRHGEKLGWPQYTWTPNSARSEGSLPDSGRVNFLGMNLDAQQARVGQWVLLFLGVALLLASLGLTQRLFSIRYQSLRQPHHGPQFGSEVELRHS
Experiment: Inhibition of angiotensin-converting enzyme in vitro (conversion of angiotensin I into angiotensin II, fluorescence)
Type: biochemical
Conditions: rabbit lung ACE; 90 min preincubation at 37° C., pH 7.5; angiotensin I 250 μmol; 30 min reaction; read-out: IC50 (concentration of test substance which reduces by 50% the conversion of angiotensin I into angiotensin II)
Method: The activity of the present pyridazodiazepine derivatives in inhibiting angiotensin-converting enzyme in vitro can be determined using the test now described.
The method used is based on the method of Santos, R. A. S., Kreiger, E. M., and Greene L. J., Hypertension (1985), 7, 244-252. Angiotensin converting enzyme (rabbit lung) is incubated in the presence or absence of various concentrations of a test substance for 90 minutes at 37° C. in 0.1M potassium phosphate buffer, pH 7.5, containing 30 mmol of sodium chloride. If the test substance is an ester, it is cleaved by treatment with hog liver esterase prior to carrying out the test. The reaction is initiated by adding angiotensin I to a final concentration of 250 μmol. The final volume of the reaction mixture is 0.25 ml. After holding the reaction mixture at 37° C. for 30 minutes the reaction is terminated by adding 1.45 ml of 0.3M sodium hydroxide solution. […] of a 0.2% (weight/volume) solution of o-phthaldialdehyde in methanol are added and, after 10 minutes, the solution is acidified with 200 μl of 3M hydrochloric acid. The resulting solution is then subjected to fluorescence spectrometry using excitation and emission wavelengths of 365 nm and 500 nm, respectively, and the IC50 value is calculated. The IC50 is that concentration of test substance which reduces by 50% the conversion of angiotensin I into angiotensin II.

N=C(N)Nc1ccc(CC[C@H](N[C@H]2CCCN3CCC[C@@H](C(=O)O)N3C2=O)C(=O)O)cc1 [Example 1, 9(S)-[1(S)-carboxy-3-(4-guanidinophenyl)propylamino]-octahydro-10-oxo-6H-pyridazo[1,2-a][1,2]diazepine-1(S)-carboxylic acid dihydrobromide]
IC50: 600 pM
